The record followed here is patent US8921376B2, “Pyrrolopyridines useful as inhibitors of protein kinase” (Vertex Pharmaceuticals Incorporated, priority 2005, dated 2014).

Type in all cases: biochemical
The target of one assay is T1, JAK3 (Homo sapiens, UniProt P52333).
T1 sequence (P52333 1-1124): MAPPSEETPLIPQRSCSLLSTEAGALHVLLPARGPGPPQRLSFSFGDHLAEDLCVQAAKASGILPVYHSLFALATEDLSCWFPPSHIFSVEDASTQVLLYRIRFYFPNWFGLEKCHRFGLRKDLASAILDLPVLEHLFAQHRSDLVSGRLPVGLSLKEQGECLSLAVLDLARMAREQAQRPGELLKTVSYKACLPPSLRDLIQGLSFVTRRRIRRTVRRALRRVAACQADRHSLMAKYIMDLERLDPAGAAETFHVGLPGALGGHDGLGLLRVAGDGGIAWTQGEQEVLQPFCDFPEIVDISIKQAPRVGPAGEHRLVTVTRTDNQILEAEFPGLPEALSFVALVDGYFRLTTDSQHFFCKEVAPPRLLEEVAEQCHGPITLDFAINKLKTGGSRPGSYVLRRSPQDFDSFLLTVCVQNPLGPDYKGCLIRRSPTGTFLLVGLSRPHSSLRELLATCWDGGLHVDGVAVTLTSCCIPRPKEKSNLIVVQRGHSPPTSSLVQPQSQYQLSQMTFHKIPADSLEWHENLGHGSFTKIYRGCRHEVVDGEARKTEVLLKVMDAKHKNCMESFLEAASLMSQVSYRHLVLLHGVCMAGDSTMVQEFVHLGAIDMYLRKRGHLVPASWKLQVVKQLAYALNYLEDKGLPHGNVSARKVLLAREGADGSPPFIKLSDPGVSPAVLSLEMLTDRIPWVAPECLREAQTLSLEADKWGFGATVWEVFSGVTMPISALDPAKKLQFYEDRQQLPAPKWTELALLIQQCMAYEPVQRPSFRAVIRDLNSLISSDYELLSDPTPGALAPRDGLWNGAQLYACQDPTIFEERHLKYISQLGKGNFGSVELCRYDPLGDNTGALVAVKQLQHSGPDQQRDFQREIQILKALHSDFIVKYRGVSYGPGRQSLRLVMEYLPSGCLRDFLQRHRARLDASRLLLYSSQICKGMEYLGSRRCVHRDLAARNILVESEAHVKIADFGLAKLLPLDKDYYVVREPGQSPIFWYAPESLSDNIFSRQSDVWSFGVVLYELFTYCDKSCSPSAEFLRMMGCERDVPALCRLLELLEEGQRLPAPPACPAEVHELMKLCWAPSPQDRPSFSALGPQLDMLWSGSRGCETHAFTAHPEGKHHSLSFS
Nature of the assay: JAK3 inhibition assay (33P incorporation into poly(Glu)4Tyr). The procedure, abridged:
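After TCA quench and filter harvest, scintillation counting of 33P measured phosphorylation of poly(Glu)4Tyr (1 μM) by 1 nM JAK3. The 20-min, 25° C. reaction contained 5 μM ATP (200 μCi/μmole) in pH 7.4 HEPES buffer with 10 mM MgCl2.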

Another assay concerns the target ROCK I (Homo sapiens, UniProt Q13464). The assay is described as follows: ROCK-I inhibition assay (radioactive enzyme assay, MBP substrate). The essentials: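 Human ROCK at 5 nM phosphorylated 27 μM myelin basic protein with 13 μM [γ-33P]ATP (final) in HEPES pH 7.5, MgCl2, NaCl, DTT and 1.5% DMSO. Reactions ran 2 h at room temperature before TCA quench and filter-plate scintillation counting. After background subtraction, data were fit to give Ki(app).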

The target in the next assay is JAK2 (Homo sapiens, UniProt O60674). The assay is described as follows: JAK2 inhibition assay (as Example 3 with JAK-2 enzyme). The procedure, abridged: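 In HEPES pH 7.4 buffer with 10 mM MgCl2, 1 mM DTT, 25 mM NaCl and 0.01% BSA, JAK2 enzyme phosphorylated poly(Glu)4Tyr (final 15 μM) using 33P-ATP (final 12 μM) for 20 min at room temperature (25 °C). Reactions stopped with TCA; incorporated 33P measured by scintillation after filtration.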
JAK2, sequence (O60674 whole entry): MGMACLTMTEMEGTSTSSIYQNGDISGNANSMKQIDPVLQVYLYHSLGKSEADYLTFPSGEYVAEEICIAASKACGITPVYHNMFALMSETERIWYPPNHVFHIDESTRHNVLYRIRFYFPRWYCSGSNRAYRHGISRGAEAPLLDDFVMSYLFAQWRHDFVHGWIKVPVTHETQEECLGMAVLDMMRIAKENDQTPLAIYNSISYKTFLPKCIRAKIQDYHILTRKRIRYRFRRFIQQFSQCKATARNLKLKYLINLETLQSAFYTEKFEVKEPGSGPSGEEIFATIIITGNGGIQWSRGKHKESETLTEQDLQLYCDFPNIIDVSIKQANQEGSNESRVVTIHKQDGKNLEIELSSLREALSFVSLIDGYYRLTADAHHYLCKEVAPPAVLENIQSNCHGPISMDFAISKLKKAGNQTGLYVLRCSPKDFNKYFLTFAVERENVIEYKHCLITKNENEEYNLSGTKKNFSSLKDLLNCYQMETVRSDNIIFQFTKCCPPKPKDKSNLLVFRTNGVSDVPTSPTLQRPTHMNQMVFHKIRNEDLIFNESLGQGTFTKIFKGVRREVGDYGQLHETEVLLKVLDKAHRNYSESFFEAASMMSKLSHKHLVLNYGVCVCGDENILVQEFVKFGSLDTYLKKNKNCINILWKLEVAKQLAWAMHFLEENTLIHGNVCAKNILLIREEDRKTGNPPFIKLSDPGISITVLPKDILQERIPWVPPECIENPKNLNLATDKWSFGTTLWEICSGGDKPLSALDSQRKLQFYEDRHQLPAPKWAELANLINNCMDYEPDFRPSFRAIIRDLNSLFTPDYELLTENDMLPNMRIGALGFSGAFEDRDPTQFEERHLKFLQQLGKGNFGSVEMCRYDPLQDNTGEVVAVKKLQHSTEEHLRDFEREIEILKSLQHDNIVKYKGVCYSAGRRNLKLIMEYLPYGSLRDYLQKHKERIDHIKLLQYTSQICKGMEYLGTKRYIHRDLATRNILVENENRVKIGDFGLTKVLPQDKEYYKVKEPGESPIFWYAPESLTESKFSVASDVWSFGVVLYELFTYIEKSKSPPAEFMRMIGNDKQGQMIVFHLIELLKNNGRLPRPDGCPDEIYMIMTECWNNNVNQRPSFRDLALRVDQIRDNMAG

Setting [1] is: enzyme inhibition, Ki(app), Table 5.
Where [2] appears, read: Table 6, enzyme inhibition data (Ki).

Molecules are shown by their SMILES.

ROCK I, sequence (Q13464 whole entry): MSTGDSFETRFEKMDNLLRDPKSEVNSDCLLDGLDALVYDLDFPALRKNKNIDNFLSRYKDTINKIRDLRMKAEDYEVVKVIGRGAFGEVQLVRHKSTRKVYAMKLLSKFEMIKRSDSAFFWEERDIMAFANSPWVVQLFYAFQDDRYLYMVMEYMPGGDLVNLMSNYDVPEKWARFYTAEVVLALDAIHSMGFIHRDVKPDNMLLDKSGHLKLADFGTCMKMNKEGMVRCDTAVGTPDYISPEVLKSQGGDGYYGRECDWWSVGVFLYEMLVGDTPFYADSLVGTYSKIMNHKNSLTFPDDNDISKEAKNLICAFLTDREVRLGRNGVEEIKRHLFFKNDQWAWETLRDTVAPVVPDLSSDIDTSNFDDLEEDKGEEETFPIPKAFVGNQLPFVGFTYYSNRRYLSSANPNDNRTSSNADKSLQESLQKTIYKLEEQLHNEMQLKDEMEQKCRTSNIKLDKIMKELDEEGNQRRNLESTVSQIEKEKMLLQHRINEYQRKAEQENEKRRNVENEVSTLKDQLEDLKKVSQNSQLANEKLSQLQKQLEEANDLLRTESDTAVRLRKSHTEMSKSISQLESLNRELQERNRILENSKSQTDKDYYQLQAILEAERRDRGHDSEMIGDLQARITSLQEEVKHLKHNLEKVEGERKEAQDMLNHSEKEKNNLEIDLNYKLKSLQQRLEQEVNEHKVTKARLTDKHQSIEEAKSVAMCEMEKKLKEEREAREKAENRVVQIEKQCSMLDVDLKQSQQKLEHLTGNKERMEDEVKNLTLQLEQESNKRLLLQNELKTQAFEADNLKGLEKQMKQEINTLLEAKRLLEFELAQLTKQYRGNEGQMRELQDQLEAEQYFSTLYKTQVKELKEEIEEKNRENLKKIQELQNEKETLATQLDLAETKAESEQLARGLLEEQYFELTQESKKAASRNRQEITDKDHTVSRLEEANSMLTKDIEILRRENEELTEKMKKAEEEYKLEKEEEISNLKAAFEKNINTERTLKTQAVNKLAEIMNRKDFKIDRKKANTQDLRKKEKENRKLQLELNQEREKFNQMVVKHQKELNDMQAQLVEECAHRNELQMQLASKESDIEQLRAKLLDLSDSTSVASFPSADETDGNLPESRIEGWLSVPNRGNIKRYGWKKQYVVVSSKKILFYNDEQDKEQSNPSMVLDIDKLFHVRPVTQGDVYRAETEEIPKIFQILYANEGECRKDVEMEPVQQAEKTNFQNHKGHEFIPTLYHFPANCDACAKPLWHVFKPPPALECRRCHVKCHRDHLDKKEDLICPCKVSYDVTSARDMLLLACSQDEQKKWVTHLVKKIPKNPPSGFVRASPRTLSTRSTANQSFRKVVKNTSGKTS

Take `c1cc(-c2ccnc3[nH]ccc23)c2ccoc2c1` [compound 115, 4-Benzofuran-4-yl-1H-pyrrolo[2,3-b]pyridine]: the Ki on JAK3 (enzyme inhibition, Table 5) is less than 500 nM; at ROCK I (setting [1]), less than 500 nM; at JAK2 (enzyme inhibition, Table 5), less than 500 nM.
Turning to `CCCOc1ccccc1-c1ccnc2[nH]ccc12` [compound 234], the values for the Ki on JAK3 (setting [2]), on ROCK I (setting [2]) and at JAK2 (setting [2]) were 500 to 5000 nM, greater than 4000 nM and greater than 5000 nM, respectively.
For `O=C(c1cc(-c2ccnc3[nH]ccc23)c[nH]1)N1CCCC(O)C1` (stereo not drawn) [compound 372] the same measures were 500 to 5000 nM, 500 to 5000 nM and 500 to 5000 nM.
Consider `O=C(NCC(F)(F)F)c1cc(-c2c(Cl)cnc3[nH]ccc23)c[nH]1` [compound 276], for which the Ki on JAK3 (setting [2]) was less than 500 nM; on ROCK I (setting [2]) it was 500 to 5000 nM; at JAK2 (setting [2]), less than 500 nM.
For `Nc1cccc(-c2ccnc3[nH]ccc23)c1` [compound 114, 3-(1H-Pyrrolo[2,3-b]pyridin-4-yl)-phenylamine], the Ki on JAK3 (enzyme inhibition, Table 5) is 500 to 5000 nM; at ROCK I (setting [1]) it was less than 500 nM; at JAK2 (enzyme inhibition, Table 5) it was 500 to 5000 nM.
Consider `O=C(Nc1ccccc1)c1ccc(-c2ccnc3[nH]ccc23)cc1` [compound 271], for which the Ki on JAK3 (setting [2]), on ROCK I (setting [2]) and on JAK2 (setting [2]) was less than 500 nM each time.
Take `COc1cccc(Cl)c1-c1ccnc2[nH]ccc12` [compound 245]: the Ki is greater than 5000 nM on JAK3 (setting [2]), greater than 4000 nM on ROCK I (setting [2]) and greater than 5000 nM on JAK2 (setting [2]).
As for `N#CCN(Cc1cccc(Cl)c1)C(=O)c1cc(-c2c(F)cnc3[nH]ccc23)c[nH]1` [compound 399], the Ki on JAK3 (setting [2]), on ROCK I (setting [2]) and on JAK2 (setting [2]) was less than 500 nM throughout.
Regarding `Clc1cnc2[nH]ccc2c1-c1cccc(N2CCCC2)n1` [compound 79, 5-Chloro-4-(6-(pyrrolidin-1-yl)pyridine-2-yl)-1H-pyrrolo[2,3-b]pyridine], the Ki is 500 to 5000 nM at JAK3 (enzyme inhibition, Table 5); 500 to 5000 nM at ROCK I (setting [1]); 500 to 5000 nM at JAK2 (enzyme inhibition, Table 5).
`N#CCCN(CC(F)(F)F)C(=O)c1csc(-c2ccnc3[nH]ccc23)n1` [compound 403]: the Ki on JAK3 (setting [2]), at ROCK I (setting [2]) and on JAK2 (setting [2]) was less than 500 nM each time.
For `O=C(Cc1ccccc1)Nc1cccc(-c2ccnc3[nH]ccc23)n1` [compound 99, N-(6-(1H-pyrrolo[2,3-b]pyridine-4-yl)pyridin-2-yl)phenylacetamide], the Ki on JAK3 (enzyme inhibition, Table 5) is greater than 5000 nM; at ROCK I (setting [1]), 500 to 5000 nM; at JAK2 (enzyme inhibition, Table 5), less than 500 nM.
Consider `O=C(CNc1nc(-c2ccnc3[nH]ccc23)ncc1F)NCC(F)(F)F` [compound 192], for which the results for the Ki at JAK3 (setting [2]), on ROCK I (setting [2]) and on JAK2 (setting [2]) were less than 500 nM, greater than 4000 nM and 500 to 5000 nM, respectively.
For `CCCN(CC1CC1)C(=O)c1ccc(-c2ccnc3[nH]ccc23)s1` [compound 319], the Ki at JAK3 (setting [2]), at ROCK I (setting [2]) and at JAK2 (setting [2]) was less than 500 nM in each case.
Regarding `O=C(NCC(F)(F)F)[C@H]1CCCN1c1nc(-c2ccnc3[nH]ccc23)ncc1F` [compound 198], the Ki on JAK3 (setting [2]) was 500 to 5000 nM; at ROCK I (setting [2]) it was greater than 4000 nM; on JAK2 (setting [2]) it was 500 to 5000 nM.
As for `COc1ccc(OC)c(Nc2c(Cl)cnc3[nH]ccc23)c1` [compound 154], the Ki at JAK3 (setting [2]) was less than 500 nM; at ROCK I (setting [2]) it was greater than 4000 nM; on JAK2 (setting [2]) it was less than 500 nM.
As to `Nc1nc(-c2ccnc3[nH]ccc23)ncc1F` [compound 203], the Ki was 500 to 5000 nM at JAK3 (setting [2]), greater than 4000 nM at ROCK I (setting [2]) and 500 to 5000 nM on JAK2 (setting [2]).
In the case of `CCN(CCC#N)C(=O)c1cc(-c2ccnc3[nH]ccc23)c[nH]1` [compound 297], the Ki at JAK3 (setting [2]), on ROCK I (setting [2]) and on JAK2 (setting [2]) was less than 500 nM each time.
Turning to `CCOC(=O)[C@@H]1[C@@H](C)CCN1C(=O)c1csc(-c2ccnc3[nH]ccc23)n1` [compound 422], the Ki on JAK3 (setting [2]), on ROCK I (setting [2]) and on JAK2 (setting [2]) was 500 to 5000 nM throughout.
In the case of `C[C@@H](Nc1nc(-c2ccnc3[nH]ccc23)nc2ccccc12)C(=O)NCC(F)(F)F` [compound 200], the Ki was 500 to 5000 nM at JAK3 (setting [2]), greater than 4000 nM at ROCK I (setting [2]) and 500 to 5000 nM on JAK2 (setting [2]).
For the compound `C=CCN(CC=C)C(=O)c1csc(-c2ccnc3[nH]ccc23)n1` [compound 401], the Ki at JAK3 (setting [2]), on ROCK I (setting [2]) and on JAK2 (setting [2]) was less than 500 nM each time.
As to `CC(=O)Nc1cccc(-c2ccnc3[nH]ccc23)c1` [compound 107, N-[3-(1H-Pyrrolo[2,3-b]pyridin-4-yl)-phenyl]-acetamide], the Ki fell in the range of 500 to 5000 nM at JAK3 (enzyme inhibition, Table 5); 500 to 5000 nM on ROCK I (setting [1]); 500 to 5000 nM on JAK2 (enzyme inhibition, Table 5).
For `CN(CCc1ccccn1)C(=O)c1cc(-c2c(Cl)cnc3[nH]ccc23)c[nH]1` [compound 351], the figures for the Ki at JAK3 (setting [2]), at ROCK I (setting [2]) and on JAK2 (setting [2]) were less than 500 nM, greater than 4000 nM and less than 500 nM, respectively.
As to `CC1CCCC(Nc2c(Cl)cnc3[nH]ccc23)C1` (stereo not drawn) [compound 161], the Ki at JAK3 (setting [2]), on ROCK I (setting [2]) and on JAK2 (setting [2]) was less than 500 nM throughout.
For the compound `Fc1ccccc1-c1ccnc2[nH]ccc12` [compound 236], the Ki at JAK3 (setting [2]) is less than 500 nM; on ROCK I (setting [2]) it was less than 500 nM; at JAK2 (setting [2]), 500 to 5000 nM.
Turning to `CCCNC(=O)c1cc(-c2ccnc3[nH]ccc23)c[nH]1` [compound 283], the Ki at JAK3 (setting [2]), on ROCK I (setting [2]) and at JAK2 (setting [2]) was less than 500 nM in each case.
With `O=C(NCC(F)(F)F)c1ccccc1-c1ccnc2[nH]ccc12` [compound 253], the results for the Ki on JAK3 (setting [2]), at ROCK I (setting [2]) and at JAK2 (setting [2]) were greater than 5000 nM, greater than 4000 nM and greater than 5000 nM, respectively.
`Clc1ccccc1CCNc1cccc(-c2ccnc3[nH]ccc23)n1` [compound 34, N-(2-Chlorophenethyl)-6-(1H-pyrrolo[2,3-b]pyridin-4-yl)pyridin-2-amine]: the Ki lay in the range of 500 to 5000 nM at JAK3 (enzyme inhibition, Table 5); 500 to 5000 nM at ROCK I (setting [1]); 500 to 5000 nM at JAK2 (enzyme inhibition, Table 5).
Take `CCOc1cccc(-c2ccnc3[nH]ccc23)c1` [compound 249]: the Ki at JAK3 (setting [2]), on ROCK I (setting [2]) and on JAK2 (setting [2]) was less than 500 nM throughout.
For the compound `Nc1ncccc1-c1ccnc2[nH]ccc12` [compound 195], the figures for the Ki on JAK3 (setting [2]), on ROCK I (setting [2]) and on JAK2 (setting [2]) were greater than 5000 nM, greater than 4000 nM and greater than 5000 nM, respectively.
As for `CCNC(=O)c1cc(-c2ccnc3[nH]ccc23)c[nH]1` [compound 282], the Ki at JAK3 (setting [2]), on ROCK I (setting [2]) and on JAK2 (setting [2]) was less than 500 nM in each case.
In the case of `CCCN(CC(F)(F)F)C(=O)c1csc(-c2ccnc3[nH]ccc23)n1` [compound 407], the Ki on JAK3 (setting [2]), at ROCK I (setting [2]) and at JAK2 (setting [2]) was less than 500 nM each time.
Take `C#CCN(C)C(=O)c1cc(-c2c(Cl)cnc3[nH]ccc23)c[nH]1` [compound 338]: the Ki was less than 500 nM at JAK3 (setting [2]), 500 to 5000 nM on ROCK I (setting [2]) and less than 500 nM on JAK2 (setting [2]).
Regarding `O=C(NC1CC1)c1cc(-c2c(Cl)cnc3[nH]ccc23)c[nH]1` [compound 281], the Ki was less than 500 nM on JAK3 (setting [2]), 500 to 5000 nM at ROCK I (setting [2]) and less than 500 nM on JAK2 (setting [2]).
Turning to `CC(C)(C)C(=O)Nc1ncccc1-c1ccnc2[nH]ccc12` [compound 194], the figures for the Ki on JAK3 (setting [2]), at ROCK I (setting [2]) and at JAK2 (setting [2]) were greater than 5000 nM, greater than 4000 nM and greater than 5000 nM, respectively.
In the case of `CCCN(CC1CC1)C(=O)c1cc(-c2ccnc3[nH]ccc23)c[nH]1` [compound 301], the Ki at JAK3 (setting [2]), at ROCK I (setting [2]) and on JAK2 (setting [2]) was less than 500 nM each time.
On to `O=C(NCC(F)(F)F)c1cccc(-c2ccnc3[nH]ccc23)c1` [compound 251], for which the Ki on JAK3 (setting [2]) was less than 500 nM; at ROCK I (setting [2]), less than 500 nM; at JAK2 (setting [2]), 500 to 5000 nM.
